Assay [1] deals with T1, Human immunodeficiency virus type 1 protease (Human immunodeficiency virus 1, UniProt Q72874). Put plainly: Inhibition of HIV-1 protease was determined in vitro.
The target in assay [2] is T1, Human immunodeficiency virus type 1 protease. Put plainly: In vitro inhibition of HIV-1 protease.

With `CC(C)(C)OC(=O)N[C@@H](Cc1ccc(O)cc1)[C@@H](O)[C@@H]1CCC[C@H]1C(=O)NCc1ccccc1`, in assay [1], the IC50 is 589 nM. This lies in the sub-micromolar range.
With `CC(C)(C)OC(=O)N[C@@H](Cc1ccccc1)[C@@H](O)C[C@@H](Cc1ccccc1)C(=O)N[C@H]1CCCC[C@H]1O`, in assay [2], the IC50 was determined as 122 nM.
For `CC(C)(C)OC(=O)N[C@@H](Cc1ccccc1)[C@@H](O)CC(=O)NC1c2ccccc2C[C@H]1O` (stereo not given in full), half-maximal inhibition in assay [1] (IC50) was put at 568 nM. This counts as sub-micromolar.
In turn, `CC(C)(C)OC(=O)N[C@@H](Cc1ccccc1)[C@@H](O)C[C@@H](Cc1ccccc1)C(=O)N[C@H]1C=CC[C@H]1O` had an IC50 in assay [2] of 9.53 nM.
The same measure, in the same setting: the result for `CC(C)(C)OC(=O)N[C@@H](Cc1ccccc1)[C@@H](O)C[C@@H](Cc1ccccc1)C(=O)N[C@H]1c2ccccc2CC[C@H]1O` reads 0.7 nM.
In turn, `O=C(N[C@H]1c2ccccc2C[C@H]1O)[C@H](Cc1ccccc1)CC(O)C[C@@H](Cc1ccccc1)C(=O)N[C@H]1c2ccccc2C[C@H]1O` had an IC50 in assay [1] of 0.692 nM.
In assay [2], `CC(C)(C)OC(=O)N[C@@H](Cc1ccccc1)[C@@H](O)C[C@@H](Cc1ccccc1)C(=O)N[C@H](CO)Cc1ccccc1` displayed an IC50 of 690 nM.
Take `CC(C)(C)OC(=O)CN(Cc1ccccc1)C[C@@H](O)[C@H](Cc1ccccc1)NC(=O)OC(C)(C)C`: the midpoint of inhibition in assay [1], the IC50, lay at 4680 nM. That is a single-digit micromolar value.
Regarding `CC(C)(C)OC(=O)N[C@@H](Cc1ccccc1)[C@@H](O)C[C@@](C)(Cc1ccccc1)C(=O)N[C@H]1c2ccccc2C[C@H]1O`, 7.7 nM corresponded to half-maximal inhibition in assay [2] (IC50).
Still for that read-out and setting: the result for `CC(C)(C)OC(=O)N[C@@H](Cc1ccccc1)[C@@H](O)CCC(=O)N[C@H]1c2ccccc2C[C@H]1O` reads 2930 nM.
`CC(C)(C)OC(=O)N[C@@H](Cc1ccccc1)[C@@H](O)/C=C(/Cc1ccccc1)C(=O)N[C@H]1c2ccccc2C[C@H]1O` had an IC50 in assay [1] of 1.29 nM.
In turn, `CC(C)(C)OC(=O)N[C@@H](Cc1ccccc1)[C@@H](O)C[C@@H](Cc1ccccc1)C(=O)N[C@@]1(C)c2ccccc2C[C@H]1O` returned an IC50 in assay [2] of 212 nM. That is a sub-micromolar value.
The molecule `CC(C)(C)OC(=O)N[C@@H](Cc1ccccc1)[C@@H](O)C[C@@H](CC(=O)c1ccccc1)C(=O)N[C@H]1c2ccccc2C[C@H]1O` had a 50% inhibitory concentration (IC50) in assay [2] of 5.42 nM.
For the molecule `C[C@@H](NC(=O)[C@H](Cc1ccccc1)C[C@H](O)[C@H](Cc1ccccc1)NC(=O)OC(C)(C)C)C1CCCCC1`, in assay [2], half-maximal inhibition (IC50) required 146 nM.
`CC(C)[C@H](NC(=O)[C@H](Cc1ccccc1)C[C@H](O)CN1C[C@H]2CCCC[C@H]2C[C@H]1C(=O)NC(C)(C)C)C(=O)Nc1ccc2ccccc2n1` had an IC50 in assay [1] of 52.8 nM. This lies in the double-digit nanomolar range.
`CC(C)(C)OC(=O)N[C@@H](Cc1ccccc1)[C@@H](O)C[C@]1(Cc2ccccc2)CCCN([C@H]2c3ccccc3C[C@H]2O)C1=O`: inhibition in assay [1] was half-maximal at 1270 nM (IC50).
With `CC(C)(C)OC(=O)N[C@@H](Cc1ccccc1)[C@@H](O)C[C@@H](Cc1ccccc1)C(=O)NCc1ccccc1`, the IC50 in assay [2] is 114 nM. That is a sub-micromolar value.
With `CC(C)(C)OC(=O)N[C@@H](Cc1ccccc1)[C@@H](O)C[C@@H](CCCc1ccccc1)C(=O)N[C@H]1c2ccccc2[C@@H](O)[C@H]1O`, in assay [2], the IC50 turned out to be 0.19 nM.
`CC(C)(C)NC(=O)[C@@H]1C[C@@H]2CCCC[C@@H]2CN1CC(O)CN1C[C@H]2CCCC[C@H]2C[C@H]1C(=O)NC(C)(C)C` showed an IC50 in assay [1] of 6760 nM.
`CC(C)(C)OC(=O)N[C@@H](Cc1ccccc1)[C@@H](O)C[C@@H](CSc1ccccc1)C(=O)N[C@H]1c2ccccc2C[C@H]1O` registered an IC50 in assay [2] of 0.25 nM.
In the case of `CC(C)(C)OC(=O)N[C@@H](Cc1ccccc1)[C@H](O)CN[C@@H](Cc1ccccc1)C(=O)N[C@H]1c2ccccc2C[C@H]1O`, the IC50 in assay [1] was 229 nM.
In assay [2], `COC(=O)[C@@H]1Cc2ccccc2[C@@H]1NC(=O)[C@H](Cc1ccccc1)C[C@H](O)[C@H](Cc1ccccc1)NC(=O)OC(C)(C)C` came in with an IC50 of 66.3 nM.
Still for that read-out and setting: the result for `CC(C)(C)OC(=O)N[C@@H](Cc1ccccc1)[C@@H](O)C[C@@H](Cc1ccccc1)C(=O)N[C@@H]1c2ccccc2OC[C@@H]1O` reads 40.5 nM.
For the molecule `CC(C)[C@H](NC(=O)[C@H](Cc1ccccc1)C[C@H](O)[C@H](Cc1ccccc1)NC(=O)OC(C)(C)C)C(=O)O`, the IC50 in assay [2] came to 161 nM.
On the same count and under the same terms, the result for `CC(C)(C)OC(=O)N[C@@H](Cc1ccccc1)[C@@H](O)C[C@@H](Cc1ccc(C(C)(C)C)cc1)C(=O)N[C@H]1c2ccccc2C[C@H]1O` reads 0.17 nM.
`CC(C)(C)OC(=O)N[C@@H](Cc1ccccc1)[C@@H](O)[C@H](O)[C@H](Cc1ccccc1)NC(=O)OC(C)(C)C` gave an IC50 in assay [1] of 1370 nM.
Same read-out and setting: the result for `CC(C)(C)NC(=O)[C@@H]1C[C@@H]2CCCC[C@@H]2CN1C[C@@H](O)C[C@@H](Cc1ccccc1)C(=O)N[C@H]1c2ccccc2C[C@H]1O` reads 7.59 nM.
Molecule `CC(C)(C)OC(=O)N[C@@H](Cc1ccccc1)[C@@H](O)C[C@@H](Cc1ccccc1)C(=O)N[C@H]1c2ccccc2C[C@H]1O` displayed an IC50 in assay [2] of 0.25 nM.
Take `CC(C)(C)NC(=O)[C@@H]1C[C@@H]2CCCC[C@@H]2CN1CC(O)[C@H](Cc1ccccc1)NC(=O)OC(C)(C)C` (stereo not given in full): in assay [1], the IC50 was 3020 nM.
In assay [2], `CC(C)(C)OC(=O)N[C@@H](Cc1ccccc1)[C@@H](O)C[C@@H](Cc1ccccc1)C(=O)N[C@H](CO)c1ccccc1` showed an IC50 of 38.6 nM.
For `C=CC[C@H](C[C@H](O)[C@H](Cc1ccccc1)NC(=O)OC(C)(C)C)C(=O)N[C@H]1c2ccccc2C[C@H]1O`, the IC50 in assay [2] came out at 27.5 nM.
On the same count and under the same terms, the result for `CC(C)(C)OC(=O)N[C@@H](Cc1ccccc1)[C@@H](O)C[C@@H](Cc1ccccc1)C(=O)N[C@H]1c2ccccc2OC[C@H]1O` reads 0.18 nM; that for `CC(C)(C)OC(=O)N[C@@H](Cc1ccccc1)[C@@H](O)C[C@@H](Cc1ccccc1)C(=O)N[C@@H]1CCc2ccccc21`, 34.2 nM; that for `CC(C)(C)OC(=O)N[C@@H](Cc1ccccc1)[C@@H](O)C[C@@H](Cc1ccccc1)C(=O)NCC1CCCCC1`, 30000 nM.
Same read-out and setting: the result for `CC(C)(C)OC(=O)N[C@@H](Cc1ccccc1)[C@@H](O)C[C@@H](Cc1ccncc1)C(=O)N[C@H]1c2ccccc2C[C@H]1O` reads 0.53 nM.

The record behind these values is ChEMBL document CHEMBL1128438, “A priori prediction of activity for HIV-1 protease inhibitors employing energy minimization in the active site” (J Med Chem, 1995).
